Measured values reported in US20160296499A1, “Spiroindoline Antiparasitic Derivatives” (ZOETIS SERVICES LLC, priority 2013, published 2016).
Like-named read-outs stand apart in the source and are kept apart here.

Legend:
[1] = system: Dirofilaria immitis microfilariae; assay: Dirofilaria immitis, Microfilariae (DiMF) In Vitro Assay; conditions: Dirofilaria immitis
[2] = target: T1, bovine vesicular acetylcholine transporter (VAChT) (Bos taurus, UniProt E1BK36); assay: Radioligand Binding Assay; conditions: Bovine binding Ki, CHO-K1 membranes with recombinant bovine VAChT, [3H]Compound X6 0.3 nM
T1 sequence (E1BK36 1-524): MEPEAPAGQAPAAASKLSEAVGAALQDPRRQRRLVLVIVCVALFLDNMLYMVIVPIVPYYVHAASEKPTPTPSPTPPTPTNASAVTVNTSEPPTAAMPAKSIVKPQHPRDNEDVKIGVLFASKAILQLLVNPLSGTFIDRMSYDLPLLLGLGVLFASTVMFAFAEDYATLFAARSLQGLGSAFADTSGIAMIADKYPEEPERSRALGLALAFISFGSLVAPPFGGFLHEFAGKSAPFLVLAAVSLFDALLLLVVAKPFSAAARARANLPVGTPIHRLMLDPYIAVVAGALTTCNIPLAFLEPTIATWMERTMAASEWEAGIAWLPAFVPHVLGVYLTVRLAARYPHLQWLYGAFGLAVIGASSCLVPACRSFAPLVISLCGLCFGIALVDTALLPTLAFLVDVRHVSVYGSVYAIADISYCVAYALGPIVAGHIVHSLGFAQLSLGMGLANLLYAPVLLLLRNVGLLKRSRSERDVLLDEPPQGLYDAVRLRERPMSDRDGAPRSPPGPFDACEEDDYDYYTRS

Haemonchus contortus L3 = assay: Haemonchus contortus, Larvae Stage 3 (HcL3) In Vitro Assay; conditions: Haemonchus contortus
[3] = 72 h, read-out: Di MF, MEC, decrease in microfilariae motility by visual assessment, curve starting at 100 μM
[4] = 96 h, read-out: HcL3 MEC, Minimal Effective Concentration whereby worm motility is inhibited by approximately 70%, 37° C., tested 0.001-100 μM
[5] = 96 hours, 37° C., read-out: HcL3 MEC

| Compound | minimal effective concentration [1, 3] [µM] | Ki [2] [nM] | minimal effective concentration (Haemonchus contortus L3; [4]) [µM] | minimal effective concentration ([1]; 72 hours, read-out: Di MF) [µM] | minimal effective concentration (Haemonchus contortus L3; [5]) [µM] |
| --- | --- | --- | --- | --- | --- |
| N#Cc1ccc(/C=C/CN2CCC3(CC2)CN(C(=O)NCc2ccnc(Cl)c2)c2ccc(F)c(Cl)c23)cc1 [Example 157, (E)-4-chloro-N-((2-chloropyridin-4-yl)methyl)-1′-(3-(4-cyanophenyl)allyl)-5-fluorospiro[indoline-3,4′-piperidine]-1-carboxamide] | 11 | 22.7 | 8.1 |  |  |
| CS(=O)(=O)c1ccc2c(c1)N(C(=O)NCc1ccnc(Cl)c1)CC21CCN(C/C=C/c2ccc(Cl)cc2)CC1 [Example 162, (E)-1′-(3-(4-chlorophenyl)allyl)-N-((2-chloropyridin-4-yl)methyl)-6-(methylsulfonyl)spiro[indoline-3,4′-piperidine]-1-carboxamide] | 10 | 23.4 | 10 |  |  |
| O=C(NCc1ccnc(C(F)(F)F)c1)N1CC2(CCN(C/C=C/c3ccc(F)cc3)CC2)c2cc(OC(F)(F)F)ccc21 [Example 175, (E)-1′-(3-(4-fluorophenyl)allyl)-5-(trifluoromethoxy)-N-((2-(trifluoromethyl)pyridin-4-yl)methyl)spiro[indoline-3,4′-piperidine]-1-carboxamide] | 3.3 | 452 | 24.5 |  |  |
| N#Cc1cccc2c1C1(CCN(C/C=C/c3ccc(Cl)cc3)CC1)CN2C(=O)NCc1ccnc(Cl)c1 [Example 165, (E)-1′-(3-(4-chlorophenyl)allyl)-N-((2-chloropyridin-4-yl)methyl)-4-cyanospiro[indoline-3,4′-piperidine]-1-carboxamide] | 8.3 | 38.4 | 16.7 |  |  |
| O=C(NCc1ccnc(F)c1)N1CC2(CCN(C/C=C/c3ccc(Cl)cc3)CC2)c2cc(OC(F)(F)F)ccc21 [Example 77, (E)-1′-(3-(4-chlorophenyl)allyl)-N-((2-fluoropyridin-4-yl)methyl)-5-(trifluoromethoxy)spiro[indoline-3,4′-piperidine]-1-carboxamide] |  | 870 |  | 3.3 | 5.7 |
| O=C(NCc1ccnc(F)c1)N1CC2(CCN(C/C=C/c3ccc(C(F)(F)F)cc3)CC2)c2cc(Cl)ccc21 [Example 184, (E)-5-chloro-N-((2-fluoropyridin-4-yl)methyl)-1′-(3-(4-(trifluoromethyl)phenyl)allyl)spiro[indoline-3,4′-piperidine]-1-carboxamide] | 3.3 | 224 | 3.3 |  |  |
| O=C(NCc1ccccc1)N1CC2(CCN(C/C=C/c3ccc(Cl)c(Cl)c3)CC2)c2c1ccc1scnc21 [Example 15, (E)-N-benzyl-1-(3-(3,4-dichlorophenyl)allyl)spiro[piperidine-4,8′-thiazolo[4,5-e]indole]-6′(7′H)-carboxamide] | 4.4 | 610 | 100 |  |  |
| O=C(NCc1cncs1)N1CC2(CCN(C/C=C/c3ccc(Cl)c(Cl)c3)CC2)c2c1ccc1scnc21 [Example 22, (E)-1-(3-(3,4-dichlorophenyl)allyl)-N-(thiazol-5-ylmethyl)spiro[piperidine-4,8′-thiazolo[4,5-e]indole]-6′(7′H)-carboxamide] | 10 | 131 | 100 |  |  |
| N#Cc1ccc2c(c1)C1(CCN(C/C=C/c3ccc(Cl)c(Cl)c3)CC1)CN2C(=O)NCc1ccnc(F)c1 [Example 113, 5-cyano-1′-[(E)-3-(3,4-dichlorophenyl)allyl]-N-[(2-fluoro-4-pyridyl)methyl]spiro[indoline-3,4′-piperidine]-1-carboxamide] | 2.4 | 66.8 | 1 |  |  |
| O=C(NCc1ccnc(Cl)c1)N1CC2(CCN(C/C=C/c3ccc(Cl)cc3)CC2)c2cc(C(F)(F)F)ccc21 [Example 160, (E)-1′-(3-(4-chlorophenyl)allyl)-N-((2-chloropyridin-4-yl)methyl)-5-(trifluoromethyl)spiro[indoline-3,4′-piperidine]-1-carboxamide] |  | 226 |  | 10 | 10 |
| O=C(NCc1ccnc(Cl)c1)N1CC2(CCN(C/C=C/c3ccc(Cl)c(Cl)c3)CC2)c2cc(F)c(C(F)(F)F)cc21 [Example 129, (E)-N-((2-chloropyridin-4-yl)methyl)-1′-(3-(3,4-dichlorophenyl)allyl)-5-fluoro-6-(trifluoromethyl)spiro[indoline-3,4′-piperidine]-1-carboxamide] |  | 32.8 |  | 10 | 1.5 |
| O=C(NCc1ccnc(Cl)c1)N1CC2(CCN(C/C=C/c3ccc(Cl)cc3)CC2)c2c(SC(F)(F)F)cccc21 [Example 89, (E)-1′-(3-(4-chlorophenyl)allyl)-N-((2-chloropyridin-4-yl)methyl)-4-(trifluoromethylthio)spiro[indoline-3,4′-piperidine]-1-carboxamide] | 6.9 | 774 | 100 |  |  |
| N#Cc1ccc2c(n1)C1(CCN(C/C=C/c3ccc(Cl)c(Cl)c3)CC1)CN2C(=O)NCc1ccnc(Cl)c1 [Example 67, (E)-N-((2-chloropyridin-4-yl)methyl)-5′-cyano-1-(3-(3,4-dichlorophenyl)allyl)spiro[piperidine-4,3′-pyrrolo[3,2-b]pyridine]-1′(2′H)-carboxamide] | 5.7 | 33.5 | 10 |  |  |
| O=C(NCc1ccnc(F)c1)N1CC2(CCN(C/C=C/c3ccc(Cl)cc3)CC2)c2c(F)cc(C(F)(F)F)cc21 [Example 90, (E)-1′-(3-(4-chlorophenyl)allyl)-4-fluoro-N-((2-fluoropyridin-4-yl)methyl)-6-(trifluoromethyl)spiro[indoline-3,4′-piperidine]-1-carboxamide] | 10 | 256 | 1.8 |  |  |
| O=C(NCc1ccnc(Cl)c1)N1CC2(CCN(C/C=C/c3ccc(F)cc3)CC2)c2c1ccc1scnc21 [Example 38, (E)-N-((2-chloropyridin-4-yl)methyl)-1-(3-(4-fluorophenyl)allyl)spiro[piperidine-4,8′-thiazolo[4,5-e]indole]-6′(7′H)-carboxamide] | 3.3 | 45.6 | 10 |  |  |
| O=C(NCc1ccnc(Cl)c1)N1CC2(CCN(C/C=C/c3ccc(Cl)c(Cl)c3)CC2)c2c(Cl)cccc21 [Example 131, (E)-4-chloro-N-((2-chloropyridin-4-yl)methyl)-1′-(3-(3,4-dichlorophenyl)allyl) spiro[indoline-3,4′-piperidine]-1-carboxamide] | 10 | 184 | 3.3 |  |  |
| O=C(NCc1ccnc(Cl)c1)N1CC2(CCN(C/C=C/c3ccc(Cl)cc3)CC2)c2c1ccc(F)c2C(F)(F)F [Example 173, (E)-1′-(3-(4-chlorophenyl)allyl)-N-((2-chloropyridin-4-yl)methyl)-5-fluoro-4-(trifluoromethyl)spiro[indoline-3,4′-piperidine]-1-carboxamide] | 5.7 | 465 | 100 |  |  |
